Measured values as given in patent publication US11951094B2, “TLR2 modulator compounds, pharmaceutical compositions and uses thereof” (Axial Therapeutics, Inc., priority 2020, dated 2024).
Structures can show the parent of a compound that is named as a salt.

Target: TLR2 (Homo sapiens, UniProt O60603)
Assay: TLR2 agonist screening assay, HEK-Blue TLR2 reporter cell line (NF-kB-driven SEAP, absorbance at 600 nm)
Assay type: cell-based
Design: host or cells: HEK-293 (HEK-Blue TLR2 reporter cell line)
Conditions: HEK-Blue TLR2 reporter cells, agonist mode
From the text: TLRs are a class of cell-surface receptors expressed on many different cell types that recognize conserved structural motifs present on pathogen-derived molecules. TLR2 recognizes bacteria-derived lipopeptides. […] Provided herein is an assay to identify and characterize the binding affinities of novel TLR2 agonists.
The in vitro TLR2 assay consists of a cell line that responds to TLR2 engagement by producing a factor that elicits a color change in the culture media and can be readily measured by various colorimetric detection methods. This assay enables the identification of existing and novel compounds that engage TLR2 and, by virtue of compound dilution, to approximate the binding affinity of these compounds for eliciting a TLR2 signal.
The TLR2 screening assay was developed from the HEK-Blue TLR2 reporter cell line that is commercially available from Invivogen (San Diego, CA). The reporter cell line consists of HEK-293 embryonic kidney cells that have been engineered to express TLR2 and with an NF-kB promoter driving expression of Secreted Alkaline Phosphatase (SEAP). Upon engagement of TLR2, downstream signaling results in activation of NF-kB pathway activation and secretion of SEAR In the presence of the detection reagent in the tissue culture media, SEAP mediates a color change from clear to indigo that is readily assessed by measuring absorbance at 600 nm.
HEK-Blue TLR2 reporter cells are cultured according to manufacturer's specifications until a confluence of 70-90%, at which point the cells are trypsinized, counted, and plated into 96-well plates at approximately 40,000 cells per well. Cells are cultured overnight and the TLR2 assay is performed 16-24 hours post-plating into 96 well plates.
Compounds are diluted from stocks dissolved in DMSO and a 1% DMSO final concentration is maintained in all testing wells.
The assay consists of removing the cell culture media after cells have been cultured overnight and replacing the media with HEK-Blue Detection media with TLR2 agonists at indicated dilution schemes. The Detection media contains a chemical substrate that turns from clear to indigo when acted upon by SEAP. The HEK-Blue cells are then cultured overnight in Detection media with diluted compounds. After overnight culture with agonists, each well of the plate is assayed in a plate reader at 600 nanometer absorbance.
• (1) HEK-Blue TLR2 cells are diluted in complete DME culture medium and plated into 96-well plates at 40,000 cells per well and cultured overnight. • (2) After 16-24 hours in culture, the media is removed and replaced with 200 microliters per well of HEK-Blue Detection media. • (3) TLR2 agonists are diluted 100-fold from DMSO stocks into each well, yielding a final DMSO concentration of 1% in all wells. • (3) Treated cells are cultured overnight and the following day are assayed in plate reader for Absorbance at 600 nanometer.
Following assay measurements utilizing either HEK-Blue detection or cytokine release, all data is analyzed with the GraphPad Prism8 statistical package to determine EC50, binding and activity metrics for the TLR2 modulators.
Data is generated using protocol described in Example 44.

Sequence of TLR2 (O60603 21-784): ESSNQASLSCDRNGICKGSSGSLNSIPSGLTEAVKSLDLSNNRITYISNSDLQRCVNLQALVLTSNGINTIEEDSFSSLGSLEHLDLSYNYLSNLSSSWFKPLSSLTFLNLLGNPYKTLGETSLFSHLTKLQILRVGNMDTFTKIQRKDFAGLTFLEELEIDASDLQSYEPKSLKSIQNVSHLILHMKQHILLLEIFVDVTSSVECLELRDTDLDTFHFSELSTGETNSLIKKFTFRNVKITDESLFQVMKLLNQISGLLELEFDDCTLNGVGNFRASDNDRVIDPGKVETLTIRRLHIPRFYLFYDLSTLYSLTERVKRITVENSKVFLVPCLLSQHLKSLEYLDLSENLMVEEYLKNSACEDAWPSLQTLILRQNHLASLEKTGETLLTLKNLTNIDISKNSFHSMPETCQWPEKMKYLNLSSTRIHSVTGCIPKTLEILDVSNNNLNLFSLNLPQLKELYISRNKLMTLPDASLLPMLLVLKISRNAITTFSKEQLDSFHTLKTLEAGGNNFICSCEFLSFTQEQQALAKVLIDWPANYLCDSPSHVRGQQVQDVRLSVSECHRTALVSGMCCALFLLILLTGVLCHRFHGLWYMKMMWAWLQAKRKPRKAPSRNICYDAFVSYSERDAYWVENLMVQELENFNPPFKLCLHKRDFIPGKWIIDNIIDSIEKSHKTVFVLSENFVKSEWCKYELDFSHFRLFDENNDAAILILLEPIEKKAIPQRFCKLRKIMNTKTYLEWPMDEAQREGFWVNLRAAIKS

| Structure (SMILES) | EC50 (average of all runs (Table 3)) | EC50 (average of all runs (Table 4)) |
| --- | --- | --- |
| CCCCCCCCCCCC(=O)N1CCN(C(=O)c2ccc(C(=O)N3C[C@@H](C(=O)N[C@H]4C[C@@H]4c4ccccc4)[C@H](C(=O)N[C@H]4C[C@@H]4c4ccccc4)C3)cc2)CC1C(=O)NCCCCCC (stereo partly drawn) [Compound 057, (3S,4S)-1-(4-(4-dodecanoyl-3-(hexylcarbamoyl)piperazine-1-carbonyl)benzoyl)-N3,N4-bis((1S,2R)-2-phenylcyclopropyl)pyrrolidine-3,4-dicarboxamide] | 51 to 350 nM |  |
| CCCCCCNC(=O)[C@H](CCNC(=O)CCCCCC)NC(=O)c1ccc(C(=O)N2C[C@@H](C(=O)N[C@H]3C[C@@H]3c3ccccc3)[C@H](C(=O)N[C@H]3C[C@@H]3c3ccccc3)C2)cc1 [Compound 021] | > 1000 nM |  |
| CCCCCCNC(=O)C1CN(C(=O)c2ccc(C(=O)N3C[C@@H](C(=O)N[C@H]4C[C@@H]4c4ccccc4)[C@H](C(=O)N[C@H]4C[C@@H]4c4ccccc4)C3)cc2)CCN1C(=O)NCCCCCC (stereo partly drawn) [Compound 049] | > 1000 nM |  |
| O=C(N[C@H]1C[C@@H]1c1ccccc1)[C@@H]1CN(C(=O)c2cnc(C(=O)N3C[C@@H](C(=O)N[C@H]4C[C@@H]4c4ccccc4)[C@H](C(=O)N[C@H]4C[C@@H]4c4ccccc4)C3)cn2)C[C@H]1C(=O)N[C@H]1C[C@@H]1c1ccccc1 [Compound 067] | > 1000 nM |  |
| CCCCCCCCCCCCCCNC(=O)C1CN(C(=O)c2ccc(C(=O)N3C[C@@H](C(=O)N[C@H]4C[C@@H]4c4ccccc4)[C@H](C(=O)N[C@H]4C[C@@H]4c4ccccc4)C3)cc2)CCO1 (stereo partly drawn) [Compound 006] | 351 to 1000 nM |  |
| CCCCCCCCCCCCCNC(=O)N[C@@H]1CCN(C(=O)c2ccc(C(=O)N3C[C@@H](C(=O)N[C@H]4C[C@@H]4c4ccccc4)[C@H](C(=O)N[C@H]4C[C@@H]4c4ccccc4)C3)cc2)C1 [Compound 079, (3S,4S)—N3,N4-bis((1S,2R)-2-phenylcyclopropyl)-1-(4-((R)-3-(3-tridecylureido)pyrrolidine-1-carbonyl)benzoyl)pyrrolidine-3,4-dicarboxamide] |  | 0.1 to 50 nM |
| CCCCCCCCCCCCCCNC(=O)[C@H]1CCN(C(=O)c2ccc(C(=O)N3C[C@@H](C(=O)N[C@H]4C[C@@H]4c4ccccc4)[C@H](C(=O)N[C@H]4C[C@@H]4c4ccccc4)C3)cc2)C1 [Compound 004] | 0.1 to 50 nM |  |
| CCCCCCNC(=O)C1CN(C(=O)c2ccc(C(=O)N3C[C@@H](C(=O)N[C@H]4C[C@@H]4c4ccccc4)[C@H](C(=O)N[C@H]4C[C@@H]4c4ccccc4)C3)cc2)CCN1 (stereo partly drawn) [Compound 042, (3S,4S)-1-(4-(3-(hexylcarbamoyl)piperazine-1-carbonyl)benzoyl)-N3,N4-bis((1S,2R)-2-phenylcyclopropyl)pyrrolidine-3,4-dicarboxamide formate] | 351 to 1000 nM |  |
| CCCCCCNC(=O)[C@H](CNC(=O)CCCCCC)NC(=O)c1ccc(C(=O)N2C[C@@H](C(=O)N[C@H]3C[C@@H]3c3ccccc3)[C@H](C(=O)N[C@H]3C[C@@H]3c3ccccc3)C2)cc1 [Compound 015] | > 1000 nM |  |

More lines, now with the values ahead:

| EC50 (average of all runs (Table 3)) | EC50 (average of all runs (Table 4)) | Structure (SMILES) |
| --- | --- | --- |
|  | 351 to 1000 nM | CCCCCCNC(=O)[C@H](CNC(=O)c1ccc(C(=O)N2C[C@@H](C(=O)N[C@H]3C[C@@H]3c3ccccc3)[C@H](C(=O)N[C@H]3C[C@@H]3c3ccccc3)C2)cc1)NC(=O)CCCC [Compound 130, (3S,4S)-1-(4-(((S)-3-(hexylamino)-3-oxo-2-pentanamidopropyl)carbamoyl)benzoyl)-N3,N4-bis((1S,2R)-2-phenylcyclopropyl)pyrrolidine-3,4-dicarboxamide] |
|  | > 1000 nM | CCCCCCCCCCCCCCNC(=O)[C@H]1CN(Cc2ccc(C(=O)N3C[C@@H](C(=O)N[C@H]4C[C@@H]4c4ccccc4)[C@H](C(=O)N[C@H]4C[C@@H]4c4ccccc4)C3)cc2)CCN1C [Compound 084, (3S,4S)-1-(4-(((R)-4-methyl-3-(tetradecylcarbamoyl)piperazin-1-yl)methyl)benzoyl)-N3,N4-bis((1S,2R)-2-phenylcyclopropyl) pyrrolidine-3,4-dicarboxamide] |
|  | > 1000 nM | CCCCCCCC[C@H]1CN(C(=O)c2ccc(C(=O)N3C[C@@H](C(=O)N[C@H]4C[C@@H]4c4ccccc4)[C@H](C(=O)N[C@H]4C[C@@H]4c4ccccc4)C3)cc2)C[C@H]1C(=O)NCCCCCC (relative stereo) [Compound 086, (3S,4S)-1-(4-((3S*,4R*)-3-(hexylcarbamoyl)-4-octylpyrrolidine-1-carbonyl)benzoyl)-N3,N4-bis((1S,2R)-2-phenylcyclopropyl)pyrrolidine-3,4-dicarboxamide] |
|  | 51 to 350 nM | CCCCCCCCCCCCCCNC(=O)C[C@H]1CCCN1C(=O)c1ccc(C(=O)N2C[C@@H](C(=O)N[C@H]3C[C@@H]3c3ccccc3)[C@H](C(=O)N[C@H]3C[C@@H]3c3ccccc3)C2)cc1 [Compound 127, (3S,4S)-1-(4-((R)-2-(2-oxo-2-(tetradecylamino)ethyl)pyrrolidine-1-carbonyl)benzoyl)-N3,N4-bis((1S,2R)-2-phenylcyclopropyl) pyrrolidine-3,4-dicarboxamide] |
|  | > 1000 nM | CCCCCCCNC(=O)[C@@H]1CN(C(=O)c2ccc(C(=O)N3C[C@@H](C(=O)N[C@H]4C[C@@H]4c4ccccc4)[C@H](C(=O)N[C@H]4C[C@@H]4c4ccccc4)C3)cc2)CCN1C(C)=O [Compound 258, (3S,4S)-1-(4-((S)-4-acetyl-3-(heptylcarbamoyl)piperazine-1-carbonyl)benzoyl)-N3,N4-bis((1S,2R)-2-phenylcyclopropyl)pyrrolidine-3,4-dicarboxamide] |
|  | > 1000 nM | CCCCCCCCCCCCCCC(=O)N[C@H]1CCCN(C(=O)c2ccc(C(=O)N3C[C@@H](C(=O)N[C@H]4C[C@@H]4c4ccccc4)[C@H](C(=O)N[C@H]4C[C@@H]4c4ccccc4)C3)cc2)C1 [Compound 124, (3S,4S)-1-(4-((S)-3-pentadecanamidopiperidine-1-carbonyl)benzoyl)-N3,N4-bis((1S,2R)-2-phenylcyclopropyl)pyrrolidine-3,4-dicarboxamide] |
|  | > 1000 nM | CCCCCCCCCCCCCCCN1C[C@@H](NC(=O)c2ccc(C(=O)N3C[C@@H](C(=O)N[C@H]4C[C@@H]4c4ccccc4)[C@H](C(=O)N[C@H]4C[C@@H]4c4ccccc4)C3)cc2)CCC1=O [Compound 180, (3S,4S)-1-(4-(((S)-6-oxo-1-pentadecylpiperidin-3-yl)carbamoyl)benzoyl)-N3,N4-bis((1S,2R)-2-phenylcyclopropyl)pyrrolidine-3,4-dicarboxamide] |
|  | > 1000 nM | CCCCCCCCCC(=O)NC(Cn1cnc2ccc(C(=O)N3C[C@@H](C(=O)N[C@H]4C[C@@H]4c4ccccc4)[C@H](C(=O)N[C@H]4C[C@@H]4c4ccccc4)C3)cc2c1=O)C(=O)NCCCCCC (stereo partly drawn) [Compound 248, (3S,4S)-1-(3-(2-decanamido-3-(hexylamino)-3-oxopropyl)-4-oxo-3,4-dihydroquinazoline-6-carbonyl)-N3,N4-bis((1S,2R)-2-phenylcyclopropyl)pyrrolidine-3,4-dicarboxamide] |
|  | 351 to 1000 nM | CCCCCCCCCCCCCCOC(=O)N[C@H]1CN(C(=O)c2ccc(C(=O)N3C[C@@H](C(=O)N[C@H]4C[C@@H]4c4ccccc4)[C@H](C(=O)N[C@H]4C[C@@H]4c4ccccc4)C3)cc2)C[C@@H]1OC [Compound 218, Tetradecyl ((3S,4S)-1-(4-((3S,4S)-3,4-bis(((1S,2R)-2-phenylcyclopropyl)carbamoyl)pyrrolidine-1-carbonyl)benzoyl)-4-methoxypyrrolidin-3-yl)carbamate] |
